Data reported in paper PMC12670426 (Journal of Medicinal Chemistry, 2025).
Read-outs that look alike come from different tables or passages of the source.

Key:
[1] = Plasma stability assay, human plasma; type: in vitro ADME; settings: pooled plasma, 37 °C
Procedure: (§1) Test compounds (10 μM) were incubated with mouse, rat, or human pooled plasma from 50 donors (Biowest) at 37 °C for 20, 60, and 120 min. Reactions were terminated by adding four volumes of ice-cold methanol, followed by vigorous mixing. Samples were kept at −20 °C for 30 min and then stored at 4 °C overnight. The next day, samples were centrifuged, and supernatants were diluted with four volumes of 30% methanol in water. Zero time points were prepared by adding ice-cold methanol to the compound prior to the addition of plasma. Samples were then analyzed on an Echo MS system (SCIEX) using multiple reaction monitoring (MRM). The only exception was compound 3af, which was analyzed by LC–MS/MS (SCIEX 6500 triple quadrupole) due to its weak ionization in Echo-MS.

[2] = Plasma stability assay, mouse plasma; type: in vitro ADME; settings: 37 °C
Procedure: as §1

[3] = Plasma protein binding assay (rapid equilibrium dialysis), mouse plasma; type: in vitro ADME; settings: fraction bound, read-out: plasma protein binding Fb mouse (converted)
Procedure: (§2) Test compound (10 μM) was incubated at 37 °C for 4 h with mouse, rat, or human plasma (Biowest) in the donor well of a rapid equilibrium dialysis plate (Thermo Fisher Scientific). PBS was placed in the acceptor well. To stop the assay, samples were collected from both wells, and an equal volume of plasma was added to the PBS sample, and vice versa. Proteins were then precipitated by adding three volumes of ice-cold methanol. Samples were mixed gently, kept at −20 °C for 30 min, and then stored at 4 °C overnight. The next day, the samples were centrifuged, and the supernatants were diluted with four volumes of 30% methanol in water. The samples were then analyzed using the Echo-MS system (SCIEX) with MRM transition monitoring, except for compound 3af, which was analyzed by LC–MS/MS as described in the plasma stability assay.

[4] = Plasma protein binding assay (rapid equilibrium dialysis), human plasma; type: in vitro ADME; settings: fraction bound, read-out: plasma protein binding Fb human (converted)
Procedure: as §2

[5] = Microsomal stability assay, human liver microsomes; type: in vitro ADME; settings: pooled liver microsomes, pH 7.4, human liver microsomes 0.5 mg/mL, NADPH
Procedure: (§3) Microsomal stability was determined using 0.5 mg/mL of pooled human, mouse, or rat liver microsomes (Thermo Fisher Scientific) in 90 mM TRIS-Cl buffer (pH 7.4) containing 2 mM NADPH and 2 mM MgCl2. Test compounds (10 μM) were added, and the resulting mixture was incubated at 37 °C for 10, 60, 120, and 180 min. The reactions were terminated by the addition of four volumes of ice-cold methanol, followed by vigorous mixing. The samples were left at −20 °C for 30 min and then stored at 4 °C overnight. The next day, samples were centrifuged, and supernatants were diluted with four volumes of 30% methanol in water. Zero time points were prepared by adding ice-cold methanol to the mixture of compounds and cofactors prior to the addition of microsomes. The samples were then analyzed using the Echo-MS system (SCIEX) with MRM transition monitoring, except for compound 3af, which was analyzed by LC–MS/MS as described in the plasma stability assay.

[6] = molecular target: T1, human galectin-3C (Gal-3C, C-terminal CRD of galectin-3) (Homo sapiens, UniProt P17931); assay: Competitive fluorescence polarization assay, Gal-3C; type: binding
T1 construct: only the C-terminal domain was used (Gal-3C); 6xHis tag with TEV protease site (N, cleaved yes); made in house; host or cells: BL21 Escherichia coli (pET-15b)
T1 sequence (P17931 118-248 limits assumed): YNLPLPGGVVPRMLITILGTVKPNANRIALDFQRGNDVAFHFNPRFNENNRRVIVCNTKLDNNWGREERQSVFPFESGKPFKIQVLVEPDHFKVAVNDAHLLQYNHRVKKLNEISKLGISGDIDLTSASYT
Procedure, shortened: (§4)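 Competitive fluorescence polarization (anisotropy) with a fluorescent probe; full-length Gal-1 and C-terminal CRD construct of Gal-3. Read after 30–60 min incubation at 25 °C. Kd fitted with Wang's exact cubic competitive model, rmin/rmax fixed from direct binding.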

[7] = molecular target: T2, human galectin-1 (Gal-1, full length) (Homo sapiens, UniProt P09382); assay: Competitive fluorescence polarization assay, Gal-1; type: binding
T2 construct: Gal-1 is a prototype galectin consisting of a single CRD and was used in full length; 6xHis tag with TEV protease site (N, cleaved yes); made in house; host or cells: BL21 Escherichia coli (pET-15b)
T2 sequence (P09382 2-135): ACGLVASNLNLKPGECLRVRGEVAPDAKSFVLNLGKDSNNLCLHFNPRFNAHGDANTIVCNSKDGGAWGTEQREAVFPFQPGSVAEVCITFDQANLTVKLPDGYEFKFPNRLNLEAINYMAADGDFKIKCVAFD
Procedure, shortened: as §4

[8] = Plasma protein binding assay (rapid equilibrium dialysis), rat plasma; type: in vitro ADME; settings: fraction bound, read-out: plasma protein binding Fb rat (converted)
Procedure: as §2

[9] = Microsomal stability assay, mouse liver microsomes; type: in vitro ADME; settings: pooled liver microsomes, pH 7.4, mouse liver microsomes 0.5 mg/mL, NADPH
Procedure: as §3

[10] = Plasma protein binding, summary across species; type: in vitro ADME; settings: summary across human, mouse and rat plasma
Procedure: as §2

[11] = Kinetic solubility assay in PBS; type: physicochemical; settings: aqueous buffer, kinetic from dmso stock; PBS at pH 7.4, 100 μM final, 2 h room temperature
Procedure: The solutions were incubated at room temperature for 2 h and filtered by centrifugation. Filtrates were diluted 100-fold with 50% acetonitrile in water and then analyzed on the Echo-MS system (SCIEX) using MRM transition monitoring, except for compound 3af, which was analyzed by LC–MS/MS as described in the plasma stability assay. Compound concentrations were quantified against calibration curves prepared in the identical matrix as the samples.

[12] = Microsomal stability assay, rat liver microsomes; type: in vitro ADME; settings: pooled liver microsomes, pH 7.4, rat liver microsomes 0.5 mg/mL, NADPH
Procedure: as §3

[13] = Plasma stability assay, rat plasma; type: in vitro ADME; settings: 37 °C
Procedure: as §1

[14] = molecular target: galectin CRD; parameters: method as in not given; settings: endogenous ligand binding the galectin CRD; literature value, ref not given; cited from earlier work
[15] = molecular target: Gal-1; assay: Direct binding fluorescence polarization of the fluorescent probe, Gal-1; parameters: species or system human; settings: [probe] 100 nM, mean ± SD
Procedure: (§5) Fluorescence polarization measurements were performed at 25 °C using a Tecan Spark multiplate reader (Tecan, Switzerland) with excitation at 485 ± 20 nm and emission at 535 ± 20 nm in a 384-well black polystyrene microplate (Corning 4514, USA). Dissociation constants of the probe (K d ^*) were determined by fitting the binding data with a quadratic model for direct binding using the BindCurve package. Additional details on the model, probe concentrations, and fitting parameters are provided in the Supporting Information.
(§6) Fluorescence polarization
(§7) Direct binding was modeled by a quadratic model, which is written as […]
(§8) where r corresponds to the measured anisotropy, rmin corresponds to the anisotropy of the free probe (labeled ligand), and rmax corresponds to maximal anisotropy, which is achieved when all molecules of the probe are bound to the receptor. Kd∗ is the dissociation constant of the probe and [R] is the concentration of free receptor. [R] is determined by a quadratic equation […]
(§9) where [L∗]T is the total concentration of the probe and [R]T is the total concentration of the receptor. Using quadratic formula, the positive root is calculated as […]
(§10) Table S1. Calculated Kd∗ values, total concentrations of the fluorescent probe, and model asymptotes from direct binding experiments. […]
(§11) a K∗ values are expressed as mean ± SD from two independent experiments, each performed […]

[16] = molecular target: T3, Gal-3C (Homo sapiens, UniProt P17931); assay: Direct binding fluorescence polarization of the fluorescent probe, Gal-3C; settings: [probe] 5 nM, mean ± SD
T3 construct: only the C-terminal domain was used (Gal-3C); 6xHis tag with TEV protease site (N, cleaved yes); made in house; host or cells: BL21 Escherichia coli (pET-15b)
T3 sequence (P17931 118-248 limits assumed): as the sequence (P17931 118-248 limits assumed) above
Procedure: as §5, §6, §7, §8, §9, §10, §11

[17] = CSV supplement, unrounded mean, read-out: Gal3C_IC50_mean_uM
[18] = CSV supplement, unrounded mean, read-out: Gal3C_Kd_mean_uM
[19] = competitive fluorescence polarization, mean ± SD, read-out: Kd Gal-3C
[20] = four-parameter logistic model, mean ± SD, read-out: IC50 Gal-3C
[21] = CSV supplement, unrounded mean, read-out: Gal1_IC50_mean_uM
[22] = CSV supplement, unrounded mean, read-out: Gal1_Kd_mean_uM
[23] = competitive fluorescence polarization, mean ± SD, read-out: Kd Gal-1
[24] = four-parameter logistic model, mean ± SD, read-out: IC50 Gal-1

Compound | remaining at 2 h, 10 μM [1] | remaining at 2 h, 10 μM [2] | fraction unbound at 4 h, 10 μM [3] | fraction unbound at 4 h, 10 μM [4] | microsomal CLint at 10 μM [5] | IC50 [6, 17] | Kd [6, 18] | Kd [6, 19] | IC50 [6, 20] | IC50 [7, 21] | Kd [7, 22] | Kd [7, 23] | IC50 [7, 24] | fraction unbound at 4 h, 10 μM [8] | microsomal CLint at 10 μM [9] | fraction unbound at 4 h, 10 μM [10] | solubility kinetic at 2 h [11] | microsomal CLint at 10 μM [12] | remaining at 2 h, 10 μM [13] | other results
CC(=O)N(c1cc(O)cc(C(=O)O)c1)[C@@H]1O[C@H](CO)[C@@H](O[C@@H]2O[C@H](CO)[C@H](O)[C@H](O)[C@H]2O)[C@H](O)[C@H]1O [Compound 3ad, N-[4-O-(β-D-Galactopyranosyl)-β-D-glucopyranosyl]-N-(3-carboxy-5-hydroxyphenyl)acetamide] | 99 ± 8% | 110 ± 2% | 0.93 | 0.94 | < 2 µL/min/mg | 32.2 µM | 11.4 µM | 11 ± 2 µM | 32 ± 2 µM | 1240 µM | 737 µM | 740 ± 20 µM | 1200 ± 300 µM | 0.94 | < 2 µL/min/mg | > 0.9 | > 100 µM | < 2 µL/min/mg | 140 ± 7% | –
CC(=O)N(c1cc(C(=O)O)cc2[nH]ccc12)[C@@H]1O[C@H](CO)[C@@H](O[C@@H]2O[C@H](CO)[C@H](O)[C@H](O)[C@H]2O)[C@H](O)[C@H]1O [Compound 3af, N-[4-O-(β-D-Galactopyranosyl)-β-D-glucopyranosyl]-N-(6-carboxy-1H-indol-4-yl)acetamide] | 100% | 76% | > 0.95 | > 0.95 | 3 µL/min/mg | 11.4 µM | 4.15 µM | 4.1 ± 0.4 µM | 11 ± 0.9 µM | 1530 µM | 846 µM | 850 ± 200 µM | 1500 ± 300 µM | 0.73 | < 2 µL/min/mg | > 0.9 | > 100 µM | < 2 µL/min/mg | 94% | enhancement of affinity for Gal-3C compared to 3r ([6]; compared to 3r): 10 fold; improvement in affinity toward Gal-3C compared to 3a ([6]; compared to unsubstituted phenyl derivative 3a): 27 fold; improvement in affinity toward Gal-3C compared to β-LacOMe ([6]; compared to β-LacOMe): 56 fold; selectivity for Gal-3C over Gal-1 ([6]; ratio Kd (Gal-1)/Kd (Gal-3C)): more than 200 fold
CC(=O)c1c[nH]c2cc(C(=O)O)cc(N(C(C)=O)[C@@H]3O[C@H](CO)[C@@H](S[C@@H]4O[C@H](CO)[C@H](O)[C@H](n5cc(-c6cccc(F)c6)nn5)[C@H]4O)[C@H](O)[C@H]3O)c12 [Compound 10, N-[4-S-(3-Deoxy-3-(4-(3-fluorophenyl)-1H-1,2,3-triazol-1-yl)-β-D-galactopyranosyl)-4-thio-β-D-glucopyranosyl]-N-(3-acetyl-6-carboxy-1H-indol-4-yl)acetamide] | 92 ± 6% | 89 ± 5% | 0.78 | 0.66 | < 2 µL/min/mg | 0.154 µM | 0.0315 µM | 0.031 ± 0.004 µM | 0.15 ± 0.009 µM | 7.16 µM | 3.62 µM | 3.6 ± 0.4 µM | 7.2 ± 0.6 µM | 0.75 | < 2 µL/min/mg | 0.1 to 0.78 | > 100 µM | < 2 µL/min/mg | 110 ± 5% | –
CC(=O)N[C@H]1C(O)O[C@H](CO)[C@@H](O[C@@H]2O[C@H](CO)[C@H](O)[C@H](O)[C@H]2O)[C@@H]1O (stereo partly shown) [LacNAc, N-acetyllactosamine] | – | – | – | – | – | – | – | – | – | – | – | – | – | – | – | – | – | – | – | Kd [14]: ~100 µM
O=C(NCc1cn([C@H]2[C@@H](O)[C@@H](CO)O[C@@H](S[C@@H]3O[C@H](CO)[C@H](O)[C@H](n4cc(-c5cccc(F)c5)nn4)[C@H]3O)[C@@H]2O)nn1)c1ccc2c(c1)C(=O)OC21c2ccc(O)cc2Oc2cc(O)ccc21 [fluorescent probe, 3-deoxy-3-[4-(fluorescein-5-yl-carbonylaminomethyl)-1H-1,2,3-triazol-1-yl]-β-D-galactopyranosyl-3-deoxy-3-[4-(3-fluorophenyl)-1H-1,2,3-triazol-1-yl]-1-thio-β-D-galactopyranoside] | – | – | – | – | – | – | – | – | – | – | – | – | – | – | – | – | – | – | – | Kd [15]: 0.74 ± 0.009 µM; Kd [16]: 0.022 ± 0.002 µM
